Data published in patent publication US20250051337A1 (priority 2021, published 2025).
Marks after values point to notes of the source that are not given here.

Assays:
kinase domain of STK4 = kinase domain of STK4 (Homo sapiens (Human), UniProt Q13043); assay: Isothermal titration calorimetry (ITC), STK4; format: binding; conditions: 25° C
Protocol: (§1) All ITC experiments were performed using NanoITC (TA Instruments: New Castle, DE, USA) at 25° C. in a buffer containing 20 mM Tris pH 7.5, 150 mM NaCl, and 0.5 mM TCEP. […] For this protocol the chamber was pre-equilibrated with the test compound, and the kinase domain of STK3 or STK4 was titrated in while continuously measuring the rate of exothermic heat evolution. The heat of binding was integrated, corrected, and fitted to an independent single-binding site model based on the manufacturer's protocol, from which thermodynamic parameters (ΔH and TΔS), equilibrium association and dissociation constants (Ka and KD), and stoichiometry (n) were calculated.
(§2) Isothermal titration calorimetry (ITC) was used to determine the thermodynamic properties of the compounds.

STK4 = STK4 (Homo sapiens (Human), UniProt Q13043); assay: PhosphoSens CSox-based Sensor Assay, STK4; format: biochemical; conditions: Km ATP, mean n = 2
Chain of STK4 (Q13043 whole entry): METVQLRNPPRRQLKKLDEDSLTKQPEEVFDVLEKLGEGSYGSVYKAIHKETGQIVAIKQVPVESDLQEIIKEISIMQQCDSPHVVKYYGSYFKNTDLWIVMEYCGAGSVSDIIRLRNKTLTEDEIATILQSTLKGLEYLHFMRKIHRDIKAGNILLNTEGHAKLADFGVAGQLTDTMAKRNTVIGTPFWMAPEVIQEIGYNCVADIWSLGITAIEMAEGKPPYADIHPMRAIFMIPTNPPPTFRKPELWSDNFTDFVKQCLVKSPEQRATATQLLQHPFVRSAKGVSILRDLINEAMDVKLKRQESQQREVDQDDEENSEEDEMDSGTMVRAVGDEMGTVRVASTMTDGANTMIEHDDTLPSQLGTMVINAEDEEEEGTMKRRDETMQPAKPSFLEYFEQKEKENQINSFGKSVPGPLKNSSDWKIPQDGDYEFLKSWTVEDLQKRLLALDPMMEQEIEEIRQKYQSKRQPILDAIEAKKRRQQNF
Protocol: (§3) Materials were obtained and prepared according to the assay manufacturer's protocol (Assay Quant Technologies: Marlborough, MA, USA). The 50 μL reaction was initiated by addition of a master mix containing the compounds or vehicle, kinase, and CSox-peptide substrate to a well containing the remaining components. […] Final concentrations were: […] HEPES pH 7.5, 50 μM ATP, 1.0 mM DTT, 0.01% Brij-35, 0.5 mM EGTA, 10 mM MgCl2, 10 μM peptide substrate (AQT0135), and 5.0 nM STK3 (SignalChem #S24-10G) or STK4 (SignalChem #S25-10G) kinases. […] Background-corrected RFU were plotted against time using Prism 8 software. Velocity determinations were calculated for each reaction and plotted versus compound concentration to generate inhibitor curves.
(§4) The PhosphoSens® CSox-based Sensor real-time kinetic assay uses a peptide substrate containing an unnatural amino acid and physiological Mg^2+ levels to quantify substrate phosphorylation using fluorescence.

[1] = system: Thr35-phosphorylated MOB1 in liver; assay: Western blot analysis of p-MOB1 in mouse liver; format: in vivo; conditions: mice; for levels of Thr35-phosphorylated MOB1 in liver vs vehicle / Relative decrease in liver p-MOB1 level: 20 mg/kg intraperitoneal; for levels of Thr35-phosphorylated MOB1 in liver vs vehicle: 1 h, p<0.002; for Relative decrease in liver p-MOB1 level: 1 h post-dose
Protocol: […] Approximately 50 mg of liver tissue was placed in 1 mL Radioimmunoprecipitation assay (RIPA) buffer (50 mM Tris-HCl pH 8.0, 150 mM NaCl, 1.0% IGEPAL® CA-630, 0.5% sodium deoxycholate, and 0.1% SDS) containing phosphatase and protease inhibitor cocktails, homogenized with a PowerGen 125 homogenizer (Fisher Scientific), and then sonicated for 10 s. Homogenized tissues were centrifuged at 14,000×g at 4° C. for 20 min and the supernatants were recovered.
Protein concentrations in the supernatants were determined using a BCA assay (Pierce/Thermo Scientific). Proteins were separated on Novex™ WedgeWell™ 4-20% Tris-Glycine Gels (Invitrogen: Carlsbad, CA, USA) and transferred to polyvinylidene difluoride (Trans-Blot® Turbo™ Transfer Pack) membranes. Membranes were blocked in Tris-buffered saline Tween® 20 (50 mM Tris-HCl pH 7.6, 150 mM NaCl, 0.05% Tween 20: TBST) containing 3% Bovine Serum Albumin (BSA) for 1 h at room temperature and incubated overnight at 4° C. with primary antibodies as follows: 1:1000 dilution of anti-MOB1 (rabbit monoclonal antibody [mAb]#13730), 1:1000 anti-phospho-MOB1 Thr35 (rabbit mAb #8699), or 1:5000 anti-GAPDH (rabbit mAb #2118: all from Cell Signaling Technology: Danvers, MA, USA). Blots were rinsed three times with TBST and then incubated in 5% nonfat milk containing horseradish peroxidase (HRP)-conjugated mouse anti-rabbit IgG secondary Ab (Cell Signaling Technology) for 1 h at RT. Blots were washed three times with TBST, developed using Pierce® ECL Western Blotting reagent, and imaged and analyzed using with ImageJ software. Quantitative data are expressed as the level of phosphorylated MOB1 normalized to total MOB1.
Adult female C57BL/6 mice (n=3/group) were intraperitoneally injected with vehicle or test compound (20 mg/kg), and blood samples and livers were collected at 30 min and 1 h post-injection, respectively. Plasma concentrations of all 13 compounds were >1.4 μM at 30 min after injection, and 10 compounds had liver concentrations >1.0 μM at 1 h after injection, as measured by LC-MS/MS, with particularly high plasma concentrations obtained with compounds 11 (15.9 μM), 16 (11.6 μM) and 105 (8.7 μM) (Table 5). To evaluate target engagement in vivo, the total and phosphorylated MOB1 levels in livers collected at 1 h post-injection was examined.

STK3 = STK3 (Homo sapiens (Human), UniProt Q13188); assay: PhosphoSens CSox-based Sensor Assay, STK3; format: biochemical; conditions: Km ATP, mean n = 2
Chain of STK3 (Q13188 whole entry): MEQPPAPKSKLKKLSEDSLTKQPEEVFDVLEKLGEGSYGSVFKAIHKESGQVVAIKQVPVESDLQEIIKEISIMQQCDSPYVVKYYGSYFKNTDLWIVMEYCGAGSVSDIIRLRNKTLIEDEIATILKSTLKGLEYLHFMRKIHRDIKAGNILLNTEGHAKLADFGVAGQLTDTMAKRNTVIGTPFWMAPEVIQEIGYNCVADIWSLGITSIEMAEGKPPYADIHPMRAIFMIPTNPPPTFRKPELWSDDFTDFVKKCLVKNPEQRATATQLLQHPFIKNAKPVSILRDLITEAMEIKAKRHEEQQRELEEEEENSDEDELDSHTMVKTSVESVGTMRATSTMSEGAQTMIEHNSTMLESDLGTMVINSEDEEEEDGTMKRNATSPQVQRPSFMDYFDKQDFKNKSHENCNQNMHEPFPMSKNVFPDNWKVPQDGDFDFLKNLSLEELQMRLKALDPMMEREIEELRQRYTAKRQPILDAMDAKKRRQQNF
Protocol: as §3, §4

kinase domain of STK3 = kinase domain of STK3 (Homo sapiens (Human), UniProt Q13188); assay: Isothermal titration calorimetry (ITC), STK3; format: binding; conditions: 25° C
Chain of kinase domain of STK3 (Q13188 27-278): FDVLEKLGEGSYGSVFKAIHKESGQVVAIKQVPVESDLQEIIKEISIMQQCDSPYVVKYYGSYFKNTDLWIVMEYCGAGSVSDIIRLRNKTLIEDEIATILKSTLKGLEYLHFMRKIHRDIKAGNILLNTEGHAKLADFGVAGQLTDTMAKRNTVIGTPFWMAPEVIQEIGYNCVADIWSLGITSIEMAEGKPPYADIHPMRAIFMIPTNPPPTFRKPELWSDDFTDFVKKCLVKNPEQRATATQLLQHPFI
Protocol: as §1, §2

Chain of kinase domain of STK4 (Q13043 30-281): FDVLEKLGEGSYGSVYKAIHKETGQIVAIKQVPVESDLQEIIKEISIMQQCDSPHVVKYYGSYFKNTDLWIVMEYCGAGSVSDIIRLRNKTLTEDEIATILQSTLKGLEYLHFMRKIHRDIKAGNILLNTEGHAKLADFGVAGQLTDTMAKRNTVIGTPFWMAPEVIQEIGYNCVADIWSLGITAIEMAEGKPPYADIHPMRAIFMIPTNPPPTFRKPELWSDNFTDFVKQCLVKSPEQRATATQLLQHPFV

Compound | ITC-KD, STK4 (kinase domain of STK4) | Ki (STK4) | inhibition of MOB1 phosphorylation in liver ([1]; 10 mg/kg intraperitoneal, 1, 2, 3 h) | levels of Thr35-phosphorylated MOB1 in liver vs vehicle [1] | Ki (STK3) | Relative decrease in liver p-MOB1 level [1] | ITC-KD, STK3 (kinase domain of STK3)
Clc1cccc(-c2c[nH]c3ncnc(N4CCOCC4)c23)c1 [Compound 6, 4-(5-(3-Chlorophenyl)-7H-pyrrolo[2,3-d]pyrimidin-4-yl)morpholine] | low nanomolar affinities | 52 nM |  |  |  |  | 
NC(=O)c1cccc(-c2c[nH]c3ncnc(N4CCOCC4)c23)c1 [Compound 11, 3-(4-Morpholino-7H-pyrrolo[2,3-d]pyrimidin-5-yl)benzamide] |  |  | maximum inhibition of MOB1 phosphorylation observed at 1 h | significant reduction | 145 nM |  | 
OC1CCN(c2ncnc3[nH]cc(-c4cccc(Cl)c4)c23)CC1 [Compound 16, 1-(5-(3-Chlorophenyl)-7H-pyrrolo[2,3-d]pyrimidin-4-yl)piperidin-4-ol] |  |  |  | significant reduction |  | 78%** | 
Clc1cccc(-c2c[nH]c3nccc(N4CCOCC4)c23)c1 [Compound 23, 4-(3-(3-chlorophenyl)-1H-pyrrolo[2,3-b]pyridin-4-yl)morpholine] | low nanomolar affinities | 33 nM |  |  | 209 nM | 33% | low nanomolar affinities
CC(=O)NC1CCN(c2ncnc3[nH]cc(-c4cccc(Cl)c4)c23)CC1 [Compound 105, N-(1-(5-(3-chlorophenyl)-7H-pyrrolo[2,3-d]pyrimidin-4-yl)piperidin-4-yl)acetamide] |  |  |  | significant reduction |  | 99%** | 
